Test results reported in ChEMBL document CHEMBL1137908, “Synthesis and antibacterial activity of novel 6-fluoro-1-[(1R,2S)-2-fluorocyclopropan-1-yl]-4-oxoquinoline-3-carboxylic acids bearing cyclopropane-fused 2-amino-8-azabicyclo[4.3.0]nonan-8-yl substituents at the C-7 position” (Bioorg Med Chem Lett, 2004).
Values after ≈ are worked out from the molar mass of the structure shown.

Columns and labels:
[1] = tested on: Staphylococcus aureus; experiment: Antibacterial activity against Staphylococcus aureus FDA 209P was determined; type: functional
[2] = tested on: Staphylococcus epidermidis; experiment: Antibacterial activity against Staphylococcus epidermidis 56500 was determined; type: functional
[3] = tested on: Enterococcus faecalis; experiment: Antibacterial activity against Enterococcus faecalis ATCC 19433 was determined; type: functional
[4] = tested on: Streptococcus mitis; experiment: Antibacterial activity against Streptococcus mitis IID685 was determined; type: functional
[5] = tested on: Streptococcus pyogenes; experiment: Antibacterial activity against Streptococcus pyogenes G-36 was determined; type: functional
[6] = tested on: Klebsiella pneumoniae; experiment: Antibacterial activity against Klebsiella pneumoniae type II was determined; type: functional
[7] = tested on: Streptococcus pneumoniae; experiment: Antibacterial activity against Penicillin-resistant Streptococcus pneumoniae (PRSP) J-24 was determined; type: functional
[8] = tested on: Staphylococcus aureus; experiment: Antibacterial activity against methicillin-resistant Staphylococcus aureus (MRSA) 870307 was determined; type: functional
[9] = molecular target: DNA topoisomerase II (Homo sapiens, UniProt P11388+Q02880); experiment: Inhibitory concentration against human DNA topoisomerase II; type: protein assay
[10] = molecular target: T1, DNA topoisomerase 4 subunit A (Staphylococcus aureus subsp. aureus Mu50, UniProt Q931S2); experiment: Inhibitory concentration against Staphylococcus aureus DNA topoisomerase IV
T1 sequence (Q931S2 whole entry): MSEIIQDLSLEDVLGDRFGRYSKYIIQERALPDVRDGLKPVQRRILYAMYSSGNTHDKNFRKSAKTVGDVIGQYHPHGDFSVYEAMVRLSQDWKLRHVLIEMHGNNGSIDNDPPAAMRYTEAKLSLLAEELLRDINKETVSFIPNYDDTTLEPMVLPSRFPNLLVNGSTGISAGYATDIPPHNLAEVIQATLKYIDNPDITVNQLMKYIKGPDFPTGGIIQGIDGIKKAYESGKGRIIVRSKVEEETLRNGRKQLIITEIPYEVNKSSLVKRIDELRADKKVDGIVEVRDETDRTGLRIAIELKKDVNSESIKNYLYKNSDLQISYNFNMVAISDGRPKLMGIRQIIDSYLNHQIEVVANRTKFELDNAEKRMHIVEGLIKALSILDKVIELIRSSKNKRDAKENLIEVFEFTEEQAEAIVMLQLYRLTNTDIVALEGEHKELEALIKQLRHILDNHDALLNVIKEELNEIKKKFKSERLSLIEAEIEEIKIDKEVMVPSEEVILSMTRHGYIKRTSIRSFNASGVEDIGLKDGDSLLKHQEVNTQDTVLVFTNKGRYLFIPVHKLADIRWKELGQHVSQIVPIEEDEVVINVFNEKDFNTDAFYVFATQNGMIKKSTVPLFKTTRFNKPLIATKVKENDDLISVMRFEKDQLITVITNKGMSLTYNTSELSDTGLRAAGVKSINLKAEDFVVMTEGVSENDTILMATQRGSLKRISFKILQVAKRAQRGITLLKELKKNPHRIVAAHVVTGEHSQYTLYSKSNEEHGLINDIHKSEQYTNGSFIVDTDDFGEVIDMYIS

[11] = tested on: Escherichia coli; experiment: Antibacterial activity against Escherichia coli NIHJ was determined; type: functional
[12] = Ratio of binding to human DNA topoisomerase II and Staphylococcus aureus DNA topoisomerase IV
[13] = Staphylococcus aureus, read-out: MIC
[14] = Staphylococcus epidermidis, read-out: MIC
[15] = Enterococcus faecalis, ATCC 19433, read-out: MIC
[16] = Streptococcus mitis, read-out: MIC
[17] = Streptococcus pyogenes, read-out: MIC
[18] = Klebsiella pneumoniae, read-out: MIC
[19] = Streptococcus pneumoniae, read-out: MIC
[20] = Escherichia coli, read-out: MIC

Compound | MIC [1, 13] [µg/mL] | MIC [2, 14] [µg/mL] | MIC [3, 15] [µg/mL] | MIC [4, 16] [µg/mL] | MIC [5, 17] [µg/mL] | MIC [6, 18] [µg/mL] | MIC [7, 19] [µg/mL] | MIC [8, 13] [µg/mL] | IC50 [9] [µg/mL] | IC50 [10] [µM] | MIC [2] | MIC [3] [µg/mL] | MIC [4] | MIC [5] | MIC [6] [µg/mL] | MIC [11] | MIC [7] | MIC [8] [µg/mL] | MIC [11, 20] [µg/mL] | further results
C[C@H]1COc2c(N3CCN(C)CC3)c(F)cc3c(=O)c(C(=O)O)cn1c23.C[C@H]1COc2c(N3CCN(C)CC3)c(F)cc3c(=O)c(C(=O)O)cn1c23.O [LEVOFLOXACIN] | 0.2 | 0.39 | 0.78 | 0.39 | 0.78 | 0.05 | 0.78 | > 6.25 |  |  |  |  |  |  |  |  |  |  |  | 
Nc1c(F)c(N2C[C@H]3CCC[C@@H](N)[C@H]3C2)c(F)c2c1c(=O)c(C(=O)O)cn2[C@@H]1C[C@@H]1F (stereo in doubt; 28 (+)) |  |  |  |  |  |  |  |  | 7 (≈ 16 µM) | 0.412 | <=0.003 ug ml-1 | 0.02 (≈ 0.0458 µM) | <=0.003 ug ml-1 | <=0.003 ug ml-1 | 0.01 (≈ 0.0229 µM) | <=0.003 ug ml-1 | <=0.003 ug ml-1 | 0.006 (≈ 0.0137 µM) |  | MIC [1]: <=0.003 ug ml-1
COc1c(N2C[C@@H]3CCCN[C@@H]3C2)c(F)cc2c(=O)c(C(=O)O)cn(C3CC3)c12 [MOXIFLOXACIN] | 0.02 (≈ 0.0498 µM) | 0.1 (≈ 0.249 µM) | 0.2 (≈ 0.498 µM) | 0.1 (≈ 0.249 µM) | 0.2 (≈ 0.498 µM) | 0.05 (≈ 0.125 µM) | 0.02 (≈ 0.0498 µM) | 0.78 (≈ 1.94 µM) |  |  |  |  |  |  |  |  |  |  | 0.006 (≈ 0.0149 µM) | 
Nc1c(F)c(N2C[C@H]3C[C@@H]4C[C@@H]4[C@H](N)[C@H]3C2)c(F)c2c1c(=O)c(C(=O)O)cn2[C@@H]1C[C@@H]1F (stereo in doubt; 26 (+)) | ≤ 0.003 | ≤ 0.003 | 0.02 (≈ 0.0446 µM) | ≤ 0.003 | 0.006 (≈ 0.0134 µM) | 0.01 (≈ 0.0223 µM) | ≤ 0.003 |  | 6.65 (≈ 14.8 µM) | 0.847 |  |  |  |  |  |  |  | 0.02 (≈ 0.0446 µM) | ≤ 0.003 | 
CN[C@H](CC(C)C)C(=O)N[C@H]1C(=O)N[C@@H](CC(N)=O)C(=O)N[C@H]2C(=O)N[C@H]3C(=O)N[C@H](C(=O)N[C@H](C(=O)O)c4cc(O)cc(O)c4-c4cc3ccc4O)[C@H](O)c3ccc(c(Cl)c3)Oc3cc2cc(c3O[C@@H]2O[C@H](CO)[C@@H](O)[C@H](O)[C@H]2O[C@H]2C[C@](C)(N)[C@H](O)[C@H](C)O2)Oc2ccc(cc2Cl)[C@H]1O [VANCOMYCIN] | 0.2 (≈ 0.138 µM) |  | 0.39 (≈ 0.269 µM) | 0.39 (≈ 0.269 µM) | 0.39 (≈ 0.269 µM) | > 6.25 | 0.2 (≈ 0.138 µM) | 0.39 (≈ 0.269 µM) |  |  |  |  |  |  |  |  |  |  | > 6.25 | 
Nc1c(F)c(N2C[C@H]3CC[C@H]4C[C@@]4(N)[C@H]3C2)c(F)c2c1c(=O)c(C(=O)O)cn2[C@@H]1C[C@@H]1F (stereo in doubt; 14 (-)) |  |  |  |  |  |  |  |  |  |  | 0.02 µg/mL (≈ 0.0446 µM) | 0.2 (≈ 0.446 µM) | 0.02 µg/mL (≈ 0.0446 µM) | 0.05 µg/mL (≈ 0.111 µM) | 0.05 (≈ 0.111 µM) | 0.006 µg/mL (≈ 0.0134 µM) | 0.02 µg/mL (≈ 0.0446 µM) | 0.2 (≈ 0.446 µM) |  | 
Nc1c(F)c(N2C[C@H]3C[C@@H]4C[C@@H]4[C@@H](N)[C@H]3C2)c(F)c2c1c(=O)c(C(=O)O)cn2[C@@H]1C[C@@H]1F (stereo in doubt; 24 (+)) [listing 1 of 2 here] |  |  |  |  |  |  |  |  |  |  |  |  |  |  |  |  |  |  |  | Selectivity [12]: 151
Nc1c(F)c(N2C[C@H]3C[C@@H]4C[C@@H]4[C@@H](N)[C@H]3C2)c(F)c2c1c(=O)c(C(=O)O)cn2[C@@H]1C[C@@H]1F (stereo in doubt; 24 (+)) [listing 2 of 2 here] | ≤ 0.003 |  |  |  |  |  |  |  | 22.47 (≈ 50.1 µM) | 0.312 | <=0.003 ug ml-1 | 0.02 (≈ 0.0446 µM) | <=0.003 ug ml-1 | <=0.003 ug ml-1 | 0.01 (≈ 0.0223 µM) | <=0.003 ug ml-1 | <=0.003 ug ml-1 | 0.01 (≈ 0.0223 µM) |  | 
Nc1c(F)c(N2C[C@H]3C[C@@H]4C[C@@H]4[C@H](N)[C@H]3C2)c(F)c2c1c(=O)c(C(=O)O)cn2[C@@H]1C[C@@H]1F (stereo in doubt; 27 (-)) |  |  |  |  |  |  |  |  |  |  | 0.006 µg/mL (≈ 0.0134 µM) |  | 0.006 µg/mL (≈ 0.0134 µM) | 0.01 µg/mL (≈ 0.0223 µM) |  |  | 0.006 µg/mL (≈ 0.0134 µM) | 0.2 (≈ 0.446 µM) |  | 
